# “And” between values parts separate entries of the source, which are not always exact repeats. Equal entries are not always repeated.
# Target: wild-type Epidermal Growth Factor Receptor (EGFR) (Homo sapiens (Human), UniProt P00533)
# Assay: WT-EGFR kinase assay (TR-FRET, 2 mM ATP)
# Assay type: biochemical
# Conditions: median or individual measurements, Table 3, read-out: EGFR Wildtyp-2mM ATP IC50 [mol/l] (median)
# From the text: Inhibitory activity of compounds of the present invention against wild-type Epidermal Growth Factor Receptor (EGFR) was quantified employing the TR-FRET based EGFR assay as described in the following paragraphs.
# Recombinant fusion protein of N-terminal Glutathion-S-Transferase (GST) and a fragment of human EGFR (amino acids R669 to A1210), expressed in Sf9 insect cells and purified via affinity chromatography using Glutathion Sepharose as described above, was used as kinase. As substrate for the kinase reaction the biotinylated peptide biotin-Ahx-AEEEEYFELVAKKK (C-terminus in amide form) was used which can be purchased e.g. form the company Biosynthan GmbH (Berlin-Buch, Germany).
# For the assay 50 nl of a 100 fold concentrated solution of the test compound in DMSO was pipetted into either a black low volume 384 well microtiter plate or a black 1536 well microtiter plate (both Greiner Bio-One, Frickenhausen, Germany), 2 μL of a solution of EGFR in aqueous assay buffer [50 mM Hepes pH 7.0, 10 mM MgCl2, 1 mM dithiothreitol, 0.5 mM EGTA, 0.3 mM activated sodium ortho-vanadate, 0.005% (w/v) bovine serum albumin, 0.005% (v/v) Tween-20] were added and the mixture was incubated for 15 min at 22° C. to allow pre-binding of the test compounds to the enzyme before the start of the kinase reaction. Then the kinase reaction was started by the addition of 3 μL of a solution of adenosine-tri-phosphate (ATP, 3.33 mM=>final conc. in the 5 μL assay volume is 2 mM) and substrate (1.67 μM=>final conc. in the 5 μL assay volume is 1 μM) in assay buffer and the resulting mixture was incubated for a reaction time of 30 min at 22° C. The concentration of EGFR was adjusted depending of the activity of the enzyme lot and was chosen appropriate to have the assay in the linear range, typical concentration was 7.6 pg/μL. The reaction was stopped by the addition of 3 μL of a solution of HTRF detection reagents (83.3 nM streptavidine-XL665 [Cisbio Bioassays, Codolet, France] and 1.67 nM PT66-Tb-Cryptate, a terbium-cryptate labelled anti-phospho-tyrosine antibody from Cisbio Bioassays [instead of the PT66-Tb-cryptate PT66-Eu-Chelate from Perkin Elmer can also be used]) in an aqueous EDTA-solution (133.3 mM EDTA, 0.2% (w/v) bovine serum albumin in 50 mM HEPES pH 7.5).
# The resulting mixture was incubated 1 h at 22° C. to allow the binding of the biotinylated phosphorylated peptide to the streptavidine-XL665 and the PT66-Tb-Cryptate. Subsequently the amount of phosphorylated substrate was evaluated by measurement of the resonance energy transfer from the PT66-Tb-Cryptate to the streptavidine-XL665. Therefore, the fluorescence emissions at 620 nm and 665 nm after excitation at 337 nm were measured in a HTRF reader, e.g. a Pherastar (BMG Labtechnologies, Offenburg, Germany) or a Viewlux (Perkin-Elmer). The ratio of the emissions at 665 nm and at […] was taken as the measure for the amount of phosphorylated substrate. The data were normalised (enzyme reaction without inhibitor=0% inhibition, all other assay components but no enzyme=100% inhibition).
# wild-type Epidermal Growth Factor Receptor (EGFR), sequence (P00533 669-1210): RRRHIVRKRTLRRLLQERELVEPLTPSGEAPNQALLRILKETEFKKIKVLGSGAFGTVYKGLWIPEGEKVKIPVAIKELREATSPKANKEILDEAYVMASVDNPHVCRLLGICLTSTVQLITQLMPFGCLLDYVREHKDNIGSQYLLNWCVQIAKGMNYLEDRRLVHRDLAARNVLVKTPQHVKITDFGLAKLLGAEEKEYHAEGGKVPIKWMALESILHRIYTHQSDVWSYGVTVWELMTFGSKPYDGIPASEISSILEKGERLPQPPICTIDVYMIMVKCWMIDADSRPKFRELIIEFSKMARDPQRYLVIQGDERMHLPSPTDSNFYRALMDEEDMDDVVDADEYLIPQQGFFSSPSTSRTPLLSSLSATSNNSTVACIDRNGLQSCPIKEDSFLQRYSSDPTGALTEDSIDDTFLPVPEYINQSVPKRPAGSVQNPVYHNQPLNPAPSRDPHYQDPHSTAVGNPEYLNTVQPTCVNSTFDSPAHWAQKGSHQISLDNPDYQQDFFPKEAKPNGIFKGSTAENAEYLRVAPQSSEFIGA
row,SMILES,IC50
1,"CN1CC(CC(F)F)c2[nH]c(-c3ccnc(NC(=O)Cc4ccc(F)cc4)c3)c(Nc3ccccc3)c2C1=O (single isomer, unassigned) [Example 44, N-{4-[3-anilino-7-(2,2-difluoroethyl)-5-methyl-4-oxo-4,5,6,7-tetrahydro-1H-pyrrolo[3,2-c]pyridin-2-yl]pyridin-2-yl}-2-(4-fluorophenyl)acetamide]",0.49 µM
2,"CCc1c[nH]c(=O)c2c(Nc3ccccc3)c(-c3ccnc(NC(=O)C(CC(F)F)c4ccc(F)cc4)c3)[nH]c12 (racemic) [Example 5, N-[4-(3-anilino-7-ethyl-4-oxo-4,5-dihydro-1H-pyrrolo[3,2-c]pyridin-2-yl)pyridin-2-yl]-4,4-difluoro-2-(4-fluorophenyl)butanamide]",7.3 µM
3,"CCC1CNC(=O)c2c1[nH]c(-c1ccnc(NC(=O)Cc3ccc(F)cc3)c1)c2Nc1ccccc1 (single isomer, unassigned) [Example 2, N-{4-[3-anilino-7-ethyl-4-oxo-4,5,6,7-tetrahydro-1H-pyrrolo[3,2-c]pyridin-2-yl]pyridin-2-yl}-2-(4-fluorophenyl)acetamide]",0.19 µM
4,"Cn1cc(CC(F)(F)F)c2[nH]c(-c3ccnc(NC(=O)Cc4ccc(F)cc4)c3)c(Nc3ccccc3)c2c1=O [Example 34, N-{4-[3-anilino-5-methyl-4-oxo-7-(2,2,2-trifluoroethyl)-4,5-dihydro-1H-pyrrolo[3,2-c]pyridin-2-yl]pyridin-2-yl}-2-(4-fluorophenyl)acetamide]",0.02 µM
5,"CN1CC(CC(F)(F)F)c2[nH]c(-c3ccnc(NC(=O)C(CC(F)F)c4ccc(F)cc4)c3)c(Nc3cscn3)c2C1=O (single isomer, unassigned) [Example 53, (2R or S)-4,4-difluoro-2-(4-fluorophenyl)-N-{4-[(7R or S)-5-methyl-4-oxo-3-[(1,3-thiazol-4-yl)amino]-7-(2,2,2-trifluoroethyl)-4,5,6,7-tetrahydro-1H-pyrrolo[3,2-c]pyridin-2-yl]pyridin-2-yl}butanamide]",> 20 µM
6,"CC1CN(C)C(=O)c2c1[nH]c(-c1ccnc(NC(=O)Cc3ccc(F)cc3)c1)c2Nc1ccccc1 (racemic) [Example 6, N-{4-[3-anilino-5,7-dimethyl-4-oxo-4,5,6,7-tetrahydro-1H-pyrrolo[3,2-c]pyridin-2-yl]pyridin-2-yl}-2-(4-fluorophenyl)acetamide]",1.4 µM
7,"Cc1cn(C)c(=O)c2c(Nc3ccccc3)c(-c3ccnc(NC(=O)C(C)c4ccc(F)cc4)c3)[nH]c12 (single isomer, unassigned) [Example 41, N-[4-(3-anilino-5,7-dimethyl-4-oxo-4,5-dihydro-1H-pyrrolo[3,2-c]pyridin-2-yl)pyridin-2-yl]-2-(4-fluorophenyl)propanamide]",9.1 µM
8,"Cn1ccc2[nH]c(-c3ccnc(NC(=O)C(CC(F)F)c4ccc(F)cc4)c3)c(Nc3ccccc3)c2c1=O (racemic) [Example 28, N-[4-(3-anilino-5-methyl-4-oxo-4,5-dihydro-1H-pyrrolo[3,2-c]pyridin-2-yl)pyridin-2-yl]-4,4-difluoro-2-(4-fluorophenyl)butanamide]",12 µM
9,"O=C1N[C@@H]2CCC[C@@H]2c2[nH]c(-c3ccnc(NC(=O)C(CC(F)F)c4ccc(F)cc4)c3)c(Nc3ccccc3)c21 (single isomer, unassigned; (-)) [Example 23, (−)-(2R or S)—N-{4-[cis-3-anilino-4-oxo-1,4,5,5a,6,7,8,8a-octahydrocyclopenta[b]pyrrolo[2,3-d]pyridin-2-yl]pyridin-2-yl}-4,4-difluoro-2-(4-fluorophenyl)butanamide]",13 µM
10,"C[C@H](C(=O)Nc1cc(-c2[nH]c3ccn(C)c(=O)c3c2Nc2ccccc2)ccn1)c1ccc(F)cc1 (single isomer, unassigned) [Example 26]",> 20 µM
11,"Cn1cc(CC(F)(F)F)c2[nH]c(-c3ccnc(NC(=O)C(CC(F)F)c4ccc(F)cc4)c3)c(Nc3ccccc3)c2c1=O (single isomer, unassigned) [Example 37, N-{4-[3-anilino-5-methyl-4-oxo-7-(2,2,2-trifluoroethyl)-4,5-dihydro-1H-pyrrolo[3,2-c]pyridin-2-yl]pyridin-2-yl}-4,4-difluoro-2-(4-fluorophenyl)butanamide]",0.12 µM
12,"CN1CC(CC(F)F)c2[nH]c(-c3ccnc(NC(=O)Cc4ccc(F)cc4)c3)c(Nc3ccccc3)c2C1=O (single isomer, unassigned) [Example 43, N-{4-[3-anilino-7-(2,2-difluoroethyl)-5-methyl-4-oxo-4,5,6,7-tetrahydro-1H-pyrrolo[3,2-c]pyridin-2-yl]pyridin-2-yl}-2-(4-fluorophenyl)acetamide]",0.41 µM
13,"O=C1N[C@@H]2CCC[C@@H]2c2[nH]c(-c3ccnc(NC(=O)C(CC(F)F)c4ccc(F)cc4)c3)c(Nc3ccccc3)c21 (mixture of isomers) [Example 21, (2RS)—N-{4-[cis-3-anilino-4-oxo-1,4,5,5a,6,7,8,8a-octahydrocyclopenta[b]pyrrolo[2,3-d]pyridin-2-yl]pyridin-2-yl}-4,4-difluoro-2-(4-fluorophenyl)butanamide]",4.5 µM
14,"CN1CC(CC(F)(F)F)c2[nH]c(-c3ccnc(NC(=O)Cc4ccc(F)cc4)c3)c(Nc3ccccc3)c2C1=O (single isomer, unassigned) [Example 15, N-{4-[3-anilino-5-methyl-4-oxo-7-(2,2,2-trifluoroethyl)-4,5,6,7-tetrahydro-1H-pyrrolo[3,2-c]pyridin-2-yl]pyridin-2-yl}-2-(4-fluorophenyl)acetamide]",2.9 µM
15,"Cc1cn(C)c(=O)c2c(Nc3ccccc3)c(-c3ccnc(NC(=O)C(C)c4ccc(F)cc4)c3)[nH]c12 (racemic) [Example 39, N-[4-(3-anilino-5,7-dimethyl-4-oxo-4,5-dihydro-1H-pyrrolo[3,2-c]pyridin-2-yl)pyridin-2-yl]-2-(4-fluorophenyl)propanamide]",18 µM
16,"CN1CC(CC2CC2)c2[nH]c(-c3ccnc(NC(=O)Cc4ccc(F)cc4)c3)c(Nc3ccccc3)c2C1=O (single isomer, unassigned) [Example 19, N-{4-[3-anilino-7-(cyclopropylmethyl)-5-methyl-4-oxo-4,5,6,7-tetrahydro-1H-pyrrolo[3,2-c]pyridin-2-yl]pyridin-2-yl}-2-(4-fluorophenyl)acetamide]",1.8 µM
17,"CN1CC(CC(F)(F)F)c2[nH]c(-c3ccnc(NC(=O)Cc4ccc(F)cc4)c3)c(Nc3ccccc3)c2C1=O (single isomer, unassigned) [Example 16, N-{4-[3-anilino-5-methyl-4-oxo-7-(2,2,2-trifluoroethyl)-4,5,6,7-tetrahydro-1H-pyrrolo[3,2-c]pyridin-2-yl]pyridin-2-yl}-2-(4-fluorophenyl)acetamide]",1.8 µM
18,"CN1CC(CC(F)(F)F)c2[nH]c(-c3ccnc(NC(=O)C(CC(F)F)c4ccc(F)cc4)c3)c(Nc3cscn3)c2C1=O (single isomer, unassigned) [Example 55, (2R or S)-4,4-difluoro-2-(4-fluorophenyl)-N-{4-[(7R or S)-5-methyl-4-oxo-3-[(1,3-thiazol-4-yl)amino]-7-(2,2,2-trifluoroethyl)-4,5,6,7-tetrahydro-1H-pyrrolo[3,2-c]pyridin-2-yl]pyridin-2-yl}butanamide]",10.8 µM and 9.47 µM
19,"Cc1cc2[nH]c(-c3ccnc(NC(=O)C(CC(F)F)c4ccc(F)cc4)c3)c(Nc3ccccc3F)c2c(=O)n1C (racemic) [Example 31, 4,4-difluoro-N-{4-[3-(2-fluoroanilino)-5,6-dimethyl-4-oxo-4,5-dihydro-1H-pyrrolo[3,2-c]pyridin-2-yl]pyridin-2-yl}-2-(4-fluorophenyl)butanamide]",> 20 µM
20,"CN1CC(CC(F)(F)F)c2[nH]c(-c3ccnc(NC(=O)Cc4ccc(F)cc4)c3)c(Nc3cscn3)c2C1=O (single isomer, unassigned) [Example 47, 2-(4-fluorophenyl)-N-{4-[(7R or S)-5-methyl-4-oxo-3-(1,3-thiazol-4-ylamino)-7-(2,2,2-trifluoroethyl)-4,5,6,7-tetrahydro-1H-pyrrolo[3,2-c]pyridin-2-yl]pyridin-2-yl}acetamide]",> 20 µM

# Reference: patent publication US20230365554A1, “SUBSTITUTED PYRROLO-PYRIDINONE DERIVATIVES AND THERAPEUTIC USES THEREOF” (The Broad Institute, Inc., priority 2020, published 2023)
